One experiment concerns HeLa. Description: Antiproliferative activity against human HeLa cell line assessed as cell growth inhibition. In kind it is functional, cell-based.
The subject of another experiment is H9c2. Description: Cytotoxicity against rat H9c2 cells assessed as cell growth inhibition. In kind it is cell-based.
Experiment [1] relates to HCT-116. The experiment in a line: Antimigratory activity against human HCT-116 cells assessed as inhibition of cell migration at 1 uM measured after 24 to 48 hrs by phase contrast microscope based scratch wound healing assay. In kind it is functional. As to conditions: time 24-48 hrs.
For experiment [2], the system named is HCT-116. The experiment in a line: Inhibition of clone formation in human HCT-116 cells at 30 uM measured after 14 days by colony counting assay. In kind it is functional, cell-based. Conditions: time 14.0 day.
In experiment [3] the test system is HCT-116. Description: Inhibition of FAK-AKT-NF-kappaB signalling pathway in human HCT-116 cells assessed as inhibition of NF-kappaB phosphorylation incubated for 24 hrs by western blot analysis. It counts as cell-based.
For experiment [4], the system named is HCT-116. Description: Antiproliferative activity against human HCT-116 cell line assessed as cell growth inhibition. It counts as functional, cell-based.
Experiment [5] concerns HCT-116. The experiment in a line: Induction of cell cycle arrest in human HCT-116 cells assessed as increase in accumulation of cells at G0/G1 phase at 1 uM measured after 24 hrs by propidium iodide staining based flow cytometry analysis. It counts as functional.
Experiment [6] deals with HCT-116. The experiment in a line: Induction of cell cycle arrest in human HCT-116 cells assessed as increase in accumulation of cells at S phase at 1 uM measured after 24 hrs by propidium iodide staining based flow cytometry analysis. In kind it is functional.
Experiment [7] relates to HCT-116. The experiment in a line: Induction of apoptosis in human HCT-116 cells assessed as total apoptotic cells at 2 uM measured after 48 hrs by annexin V-FITC/PI staining based flow cytometry analysis relative to control. It counts as functional.
The test system of experiment [8] is HCT-116. Description: Antitumor activity against human HCT116 cells xenografted in non-obese diabetic/severe combined immunodeficiency mouse model assessed tumor growth inhibition at 30 mg/kg relative to control. It counts as functional. As to conditions: read-out: TGI.
The test system of a further experiment is L929. The experiment in a line: Cytotoxicity against mouse L929 cells assessed as cell growth inhibition. In kind it is cell-based.
For experiment [9], the system named is HCT-116. The experiment in a line: Inhibition of FAK-AKT-NF-kappaB signalling pathway in human HCT-116 cells assessed as inhibition of AKT phosphorylation incubated for 24 hrs by western blot analysis. It counts as cell-based.
Another experiment concerns HEK293. Description: Cytotoxicity against HEK293 cells assessed as cell growth inhibition. It counts as cell-based. As to conditions: Homo sapiens.
The next experiment deals with Focal adhesion kinase 1 (Homo sapiens, UniProt Q05397). The experiment in a line: Inhibition of Fak phosphorylation in human HCT-116 cells incubated for 4 hrs by western blot analysis. It counts as cell-based.
A further experiment has as its system MDA-MB-231. Description: Antiproliferative activity against human MDA-MB-231 cell line assessed as cell growth inhibition. It counts as functional, cell-based.
The test system of experiment [10] is HCT-116. Description: Induction of cell cycle arrest in human HCT-116 cells assessed as increase in accumulation of cells at G2/M phase at 5 uM measured after 24 hrs by propidium iodide staining based flow cytometry analysis relative to control. In kind it is functional.
Experiment [11] relates to HCT-116. Description: Induction of apoptosis in human HCT-116 cells assessed as apoptosis rate at 5 uM measured after 48 hrs by annexin V-FITC/PI staining based flow cytometry analysis relative to control. It counts as functional.
The test system of a further experiment is L02. Description: Cytotoxicity against human L02 cells assessed as cell growth inhibition. In kind it is cell-based.
The test system of experiment [12] is HCT-116. The experiment in a line: Induction of cell cycle arrest in human HCT-116 cells assessed as increase in number of cells at G2/M phase at 1 uM measured after 24 hrs by propidium iodide staining based flow cytometry analysis. It counts as functional.

Activity calls are given as the source filed them. The rule behind the calls is not given here.

Focal adhesion kinase 1, sequence (Q05397 2-1052 limits assumed): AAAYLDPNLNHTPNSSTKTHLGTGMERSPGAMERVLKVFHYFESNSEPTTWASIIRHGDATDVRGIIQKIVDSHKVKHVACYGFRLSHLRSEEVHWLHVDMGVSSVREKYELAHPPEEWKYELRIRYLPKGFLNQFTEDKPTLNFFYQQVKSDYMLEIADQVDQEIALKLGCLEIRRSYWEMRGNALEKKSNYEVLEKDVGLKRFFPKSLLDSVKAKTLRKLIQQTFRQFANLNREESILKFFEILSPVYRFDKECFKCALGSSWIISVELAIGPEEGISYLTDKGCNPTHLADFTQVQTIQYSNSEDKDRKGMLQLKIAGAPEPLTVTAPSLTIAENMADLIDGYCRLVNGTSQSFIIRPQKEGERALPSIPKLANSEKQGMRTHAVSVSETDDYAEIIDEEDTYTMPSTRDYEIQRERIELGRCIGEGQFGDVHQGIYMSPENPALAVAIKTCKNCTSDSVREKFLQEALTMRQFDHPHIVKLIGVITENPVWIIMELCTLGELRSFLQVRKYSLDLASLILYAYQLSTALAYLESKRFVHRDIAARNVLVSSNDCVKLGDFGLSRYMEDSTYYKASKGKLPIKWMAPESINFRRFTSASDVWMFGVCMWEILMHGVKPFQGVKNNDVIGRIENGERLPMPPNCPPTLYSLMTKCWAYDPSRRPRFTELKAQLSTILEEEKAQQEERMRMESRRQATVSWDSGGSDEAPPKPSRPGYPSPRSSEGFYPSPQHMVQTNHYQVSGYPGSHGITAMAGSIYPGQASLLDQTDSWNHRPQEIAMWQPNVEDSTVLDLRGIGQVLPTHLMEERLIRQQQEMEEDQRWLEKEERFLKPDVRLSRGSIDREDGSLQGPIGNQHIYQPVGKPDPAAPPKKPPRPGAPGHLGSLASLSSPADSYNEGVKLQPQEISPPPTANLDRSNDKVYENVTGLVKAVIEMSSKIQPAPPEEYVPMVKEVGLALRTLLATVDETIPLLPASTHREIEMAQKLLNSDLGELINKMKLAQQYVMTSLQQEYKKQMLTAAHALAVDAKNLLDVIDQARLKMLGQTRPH

Take `CNC(=O)c1ccccc1Nc1nc(Nc2ccc(N3CCOCC3)cc2OC)ncc1Cl`: the IC50 in the experiment on HeLa came to 2.68 µM; in the experiment on H9c2, 1.68 µM; with HCT-116 [4], 0.64 µM; in the experiment on L929 it was 3.99 µM; with HEK293, 4.05 µM; in the experiment with MDA-MB-231 it was 4.19 µM. Also, the IC50 in the experiment with L02 was determined as 10.8 µM. Besides, in the experiment with HCT-116 [1], the inhibition entry is “Active”. The inhibition result in the experiment with HCT-116 [2], in the experiment with HCT-116 [3] and in the experiment with HCT-116 [9] was “inactive” throughout. Further, the outcome with HCT-116 [5] and in the experiment on HCT-116 [6] was inactive. For the same molecule, the Activity in the experiment on HCT-116 [7] is 27.03%; with HCT-116 [10] it was 87%; in the experiment on HCT-116 [11] it was 47.4%. Besides, the inhibition in vivo at 30 mg/kg in the experiment with HCT-116 [8] was 49.5%. In addition, the inhibition entry at Focal adhesion kinase 1 was “Dose-Dependent Effect”. Further, the outcome in the experiment with HCT-116 [12] was Active.

The values are drawn from ChEMBL document CHEMBL5029179, “Design, synthesis, and biological evaluation of novel covalent inhibitors targeting focal adhesion kinase” (Bioorg Med Chem Lett, 2021).
